Patent US12178825B2, “Method and compositions for forming a copper-containing complex and uses thereof” (COLD SPRING HARBOR LABORATORY, priority 2017, dated 2024)
pKd, pKi: −log10 of the molar value. Entries after “also recorded” stand apart in the source; their conditions may differ.

Tests used:
[1] = target: T1, PAK1 (Homo sapiens, UniProt Q13153); assay: Kinase activity assay (ADP-Glow, MBP substrate); assay type: biochemical; conditions: in the presence of Cu(II)
Method: In brief, recombinant PAK1 (20 nM) or recombinant MEK1 (20 nM) were incubated for 30 min in 180 μl of kinase buffer in the presence or absence of CuSO4 (5 μM). The activity of the kinase was monitored using MBP as substrate by ADP-Glow assay (Promega) as per user's manual.

[2] = target: MEK1 (Homo sapiens, UniProt Q02750); assay: Cu-binding assay with kinase; conditions: read-out: Kd, copper binding to MEK1
Sequence of MEK1 (Q02750 whole entry): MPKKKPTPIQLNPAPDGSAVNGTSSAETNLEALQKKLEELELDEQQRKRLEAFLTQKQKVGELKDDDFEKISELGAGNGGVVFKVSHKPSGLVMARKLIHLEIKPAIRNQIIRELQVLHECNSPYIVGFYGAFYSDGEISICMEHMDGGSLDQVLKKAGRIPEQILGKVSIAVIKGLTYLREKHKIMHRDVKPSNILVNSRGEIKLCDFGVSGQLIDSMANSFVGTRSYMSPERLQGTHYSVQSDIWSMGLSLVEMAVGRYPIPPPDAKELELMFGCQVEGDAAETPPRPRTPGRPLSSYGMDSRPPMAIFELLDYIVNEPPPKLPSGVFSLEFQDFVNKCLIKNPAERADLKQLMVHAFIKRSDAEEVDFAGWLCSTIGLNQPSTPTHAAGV

[3] = target: T1, PAK1; assay: Cu-binding assay with kinase; conditions: read-out: Kd, copper binding to PAK1
Method: Direct binding assays were performed using radiolabelled copper (64 Cu^2+). Varying concentration of radiolabeled copper (0-10 uM) was incubated with recombinant PAK1 (100 nM). Excess copper was removed by running the samples through a desalting column. The amount of metal bound to the protein was quantitated directly by scintillation counting.

[4] = tested on: ATP7B-knockdown HepG2 cells; assay: Copper-induced toxicity, MTT cell survival; assay type: cell-based; conditions: copper concentrations greater than 0.5 mM
Method: HepG2 cells purchased from ATCC were cultured in RPMI media containing 10% FBS, 5% CO2 at 37 C. Control (AG09319) and Wilson's disease patient-derived fibroblasts (GM00032, GM00033, GM05257, GM12158, GM05798 and GM11778) were obtained from Coriell Biorepository and cultured in DMEM, 10% FBS, 5% CO2 at 37° C.
For cell survival assays, 10,000 cells were seeded in a 96 well plate and cultured until fully confluent (90%). To these cells, ATP7B siRNAs or scrambled siRNA (negative control) purchased from Qiagen and Santa Cruz Biotechnology were transfected. Lipofectamine RNAiMAX reagent (Thermofischer) and siRNAs were diluted into a final volume of 100 μl in Opti-MEM (Gibco). The mixture was incubated at room temperature for 30 min, following which 800 μl of Opti-MEM was added to the mixture. The above transfection solution was overlaid onto cells at a final concentration of 5 nM siRNA. Transfection of HepG2 cells with scrambled siRNA served as negative control. Twelve hours after the transfection, complete media was added to each well. Following which, knockdown efficiency was checked (24 hours later) and cells were exposed to varying concentration of copper (0-1 mM) for 12 h and cell viability was determined using the MTT assay as previously described (37). […]

[5] = tested on: non-TNBC cell lines; assay: MTT cell survival, non-TNBC cell lines; assay type: cell-based
Method: (§1) The MTT assay was used to evaluate cell survival in the absence and presence of different compounds. The thiazolyl blue tetrazolium bromide (MTT) was dissolved in phosphate buffered saline (PBS) at a concentration of 5 mg/ml, filtered, and stored at 4° C. About 10,000 cells were seeded into a 96-well plate and cultured in growth medium containing serum. After 24 hours, cells were treated with the indicated concentrations of DPM-1001 or DPM-1003 (0-100 uM) for 2 hrs. Following which 20 μl MTT was added into each well. An ELISA plate reader (Biotek, Winooski, Vermont, USA) was used to measure the optical density at 490 nm.

[6] = Direct copper-binding assay with radiolabelled copper
Method: Direct binding assays were performed using radiolabelled copper (64 Cu^2+). Varying concentration of radiolabeled copper (0-100 nM) was incubated with DPM-1001 (100 nM). Excess copper was removed by running the samples through a desalting column. The amount of metal bound to the compound was quantitated directly by scintillation counting. For assays with the protein, His-tagged PTP1B (100 nM) was incubated with varying concentrations of Cu-DPM-1001 complex for 60 min in assay buffer (50 mM Hepes, 100 mM NaCl, 0.1% BSA pH 6.5) at 25° C. Protein-bound and free compound were separated by incubating the protein-inhibitor mixture with 50 μl of 50% Ni-NTA beads for 10 min at 25° C. The beads were washed with assay buffer containing 150 mM NaCl and 25 mM Imidazole three times, and the inhibitor bound to protein was determined by scintillation counting. The amount of bead-bound protein was estimated by BCA protein quantification.
Direct binding assays were performed using radiolabelled copper (64 Cu^2+). […] The amount of metal bound to the compound was quantitated directly by scintillation counting. […] The inhibitor bound to protein was determined by scintillation counting. The amount of bead-bound protein was estimated by BCA protein quantification. For protein quantitation the bead bound protein was precipitated with TCA (25% final) on ice for 30 minutes. […]

[7] = tested on: TX mice; assay: Tissue and fecal copper levels (ICP-MS, rhodanine staining); assay type: in vivo, mouse; conditions: TX mice, ICP-MS
Method: C3He-Atp7b^tx-j were obtained from the Jackson laboratory. All animal experiments were performed according to protocols approved by the Institutional Animal Use and Care Committee of Cold Spring Harbor laboratory. Mice were injected intraperitoneally (i.p.) with vehicle, or administered DPM-1001 intraperitoneally or orally at 5 mg/kg once every third day, for over a year. At the end of the study animals were euthanized and tissue samples were removed for biochemical studies.
Tissue samples from wild-type or TX mice treated with saline, DPM-1001 or tetrathiomolybdate was washed three times with PBS containing 1 mM EDTA (to remove nonspecifically bound copper). Then, 215 μl of concentrated nitric acid (BDH Aristar Ultra) was added to each sample and incubated overnight. Samples were boiled at 95° C. for 1 h. and approximately 150 μl of each sample was further diluted in 2 ml 2% nitric acid (made freshly from concentrated nitric acid and Milli-Q water) Samples were analyzed on a Thermo Fisher iCAP Qc ICP mass spectrometer in kinetic energy discrimination (KED) mode against a calibration curve of known copper and phosphorus concentrations, with Ga (20 μg/l, Inorganic Ventures) as an internal standard, Each experiment was carried out twice and each condition was repeated in at least triplicate.
Liver tissues from wild-type and TX mice from untreated and DPM-1001-treated mice were sectioned and stained with H&E or rhodanine. Whole-slide, digitized images of H&E-stained tissue were captured using the Aperio ScanScope XT automated scanning system (Vista, CA). Image J software was used to quantitate rhodanine staining.

[8] = ESI-MS analysis of complex formation with a series of other metal ions; assay type: binding; conditions: panel of metals
Method: Eight equivalents of M(NO3)2·xH2O or MSO4·xH2O were reacted with 1 eq. of DPM-1001, DPM-1003 or analog 2 (1 mM in H2O). The reaction solutions were stirred at RT, 40° C. and 80° C. for 2 h. Each sample was diluted 5-fold in 50% methanol, 0.1% formic acid and loaded into a 500 μL syringe. A Thermo Vantage triple quadrupole mass spectrometer (Thermo Scientific), equipped with an HESI spray source was coupled to an Accela HPLC system (Thermo Scientific). Mobile phase A consisted of 0.1% formic acid and mobile phase B consisted of 0.1% formic acid in methanol. Isocratic flow was set to 50% B at 200 μL/min. 200 μl samples were injected into the LC flow line via syringe pump at 10 μL/min and electrosprayed into the Vantage triple quadrupole mass spectrometer. A spray voltage of 4.3 kV was used along with a capillary temperature of 350° C. Each full MS scan was 0.5 s and data were collected with a scan range of 200 m/z to 900 m/z over 1 min.

[9] = tested on: TNBC cells; assay: Cellular copper levels by ICP-MS; assay type: cell-based
Method: TNBC cells (1×10^6) were plated in a 10-cm culture dish in growth medium. About 24 h after seeding cells, they were untreated or treated with DPM-1001 (2 uM) or DPM-1003 (2 uM) for 2 h. Following which, cells were washed three times with PBS. Then, 215 μl of concentrated nitric acid (BDH Aristar Ultra) was added to each sample and incubated overnight. Samples were boiled at 95° C. for 1 h. and approximately 150 μl of each sample was further diluted in 2 ml 2% nitric acid (made freshly from concentrated nitric acid and Milli-Q water). Samples were analyzed on a Thermo Fisher iCAP Qc ICP mass spectrometer in kinetic energy discrimination (KED) mode against a calibration curve of known copper and phosphorus concentrations, with Ga (20 μg/l, Inorganic Ventures) as an internal standard. Each experiment was carried out twice and each condition was repeated in at least triplicate.

[10] = target: PTP1B (Homo sapiens, UniProt P18031); assay: PTP1B inhibition (Ki); assay type: biochemical
Sequence of PTP1B (P18031 whole entry, species assumed): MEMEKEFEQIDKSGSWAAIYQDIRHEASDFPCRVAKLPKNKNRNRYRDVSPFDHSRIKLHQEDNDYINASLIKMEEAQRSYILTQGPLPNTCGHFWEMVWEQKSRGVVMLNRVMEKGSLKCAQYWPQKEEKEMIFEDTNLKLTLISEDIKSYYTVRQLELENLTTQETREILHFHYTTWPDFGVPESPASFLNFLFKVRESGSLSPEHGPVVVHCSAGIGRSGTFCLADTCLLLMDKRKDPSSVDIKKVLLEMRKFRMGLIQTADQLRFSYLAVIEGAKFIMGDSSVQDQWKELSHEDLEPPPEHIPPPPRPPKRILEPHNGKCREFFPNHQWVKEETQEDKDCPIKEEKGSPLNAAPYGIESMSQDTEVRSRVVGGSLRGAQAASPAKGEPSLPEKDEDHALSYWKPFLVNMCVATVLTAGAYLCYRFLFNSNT

[11] = tested on: triple-negative breast cancer (TNBC) cell lines; assay: MTT cell survival, triple-negative breast cancer cell lines; assay type: cell-based
Method: as §1

[12] = tested on: MDA-MB-231 cells; assay: MDA-MB-231 orthotopic xenograft; assay type: in vivo, SCID-beige mice; conditions: mice with TNBC xenograft, 5 mg/kg intraperitoneally every day
Method: MDA-MB-231 cells (2×10^6) were injected orthotopically into mammary fat pads of SCID-beige mice (Tectonic lab) in 15 μl of a 1:1 mixture with DMEM and growth factor-reduced Matrigel (BD Biosciences). The animals were randomly assigned to three groups to receive saline (control), DPM-1001 (5 mg/kg) or DPM-1003 (5 mg/kg) intraperitoneally everyday once the tumors reached about 200 mm^3. Tumor growth was monitored every third day and volume in mm^3 was measured three times weekly by palpation using the formula: volume=width^2×length/2. Once the tumor volume reached above 500 mm^3 in saline treated mice, the study was terminated. Tumors from all mice were removed for biochemical analysis.

T1 sequence (Q13153 whole entry): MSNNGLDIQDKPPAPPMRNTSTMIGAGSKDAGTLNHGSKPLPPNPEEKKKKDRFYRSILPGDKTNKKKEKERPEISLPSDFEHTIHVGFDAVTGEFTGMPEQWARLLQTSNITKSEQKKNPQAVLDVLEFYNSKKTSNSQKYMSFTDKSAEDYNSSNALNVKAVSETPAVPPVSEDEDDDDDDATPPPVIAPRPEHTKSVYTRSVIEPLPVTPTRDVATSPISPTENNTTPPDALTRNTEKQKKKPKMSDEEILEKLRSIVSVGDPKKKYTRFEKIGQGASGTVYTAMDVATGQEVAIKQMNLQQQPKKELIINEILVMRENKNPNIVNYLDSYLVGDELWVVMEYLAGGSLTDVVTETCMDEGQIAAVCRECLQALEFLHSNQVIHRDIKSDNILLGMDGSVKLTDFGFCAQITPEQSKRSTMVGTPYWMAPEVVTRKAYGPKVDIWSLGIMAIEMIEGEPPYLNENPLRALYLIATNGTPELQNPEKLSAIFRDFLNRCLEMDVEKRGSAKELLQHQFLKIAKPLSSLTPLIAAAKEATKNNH

[Cu+2] [copper]
Vmax of PAK1 kinase activity [1]: 834.4 | pKd [2]: 8.30 | pKd [3]: 7.82 | survival of ATP7B-KD1 [4]: less than 20%

COC(=O)CCC(C)C1CCC2C3C(O)CC4CC(NCCCCNCc5cccnc5)CCC4(C)C3CCC12C (stereo not drawn) [DPM-1003]
survival of non-TNBC cell lines, DPM-1001 versus DPM-1003 [5]: did not differ from each other | binding to copper (in words) [6]: does not bind copper with high affinity; also recorded: limited binding; also recorded: does not bind with high affinity to or form a complex with copper | copper levels in liver and brain [7]: did not affect levels of copper in liver tissue; also recorded: did not suppress the levels of the metal in liver | complex formation with other metals [8]: limited binding | cellular copper levels [9]: does not reduce copper levels | pKi [10]: 5.70 | survival of triple-negative breast cancer cells [11]: did not affect survival; also recorded: does not inhibit the survival | tumor volume / tumor size [12]: without effect; also recorded: not by DPM-1003; also recorded: did not reduce tumor size or inhibit tumor growth
